Test results reported in patent publication US11439631B2, “Use of a glutarimide derivative to treat diseases related to the aberrant activity of cytokines” (“CHEMIMMUNE THERAPEUTICS” LIMITED LIABILITY COMPANY, priority 2017, dated 2022).

Experiments:
[1] = system: thermal pain irritation (hot plate); test: Thermal pain irritation model hot plate; type: in vivo, Balb/c mice
Protocol: The model of thermal pain irritation “hot plate” was carried out according to the standard procedure [Valdman A. V., Ignatov Y. D. Central mechanisms of pain. L.: Nauka, 1976]. The test compound was administered to Balb/c mice intragastrically, once. After 1, 4, 6, 12, 24 hours after the administration of the preparation, the “hot plate” test was carried out. To conduct the “hot plate” test, the mice were placed on the hot plate, the temperature (+55±1° C.) of which is constant. The time of first manifestations of the pain response in mice (paw licking, jumping) was registered and the mean latent time of the threshold of pain sensitivity (TPS, sec) in each group was calculated.

[2] = system: acetic acid-induced abdominal constrictions; test: Specific pain reaction by chemical stimulation of peritoneum (abdominal constriction test); type: in vivo, Balb/c mice; conditions: 30 mg/kg intragastric, M ± m, n = 12
Protocol: The model of the specific pain reaction by the method of chemical stimulation of peritoneum (“abdominal constriction” test) was carried out according to the standard procedure. To conduct the “abdominal constriction” test, Balb/c mice were intraperitoneally administered with 1% acetic acid in a volume of 10 ml per kg of the animal body weight. The test compound was administered intragastrically, once, 1 or 2 hour(s) before the administration of acetic acid. A quantity of constrictions (convulsive twitching of the abdominal muscles accompanied with stretching hind quarters and arching) was evaluated 15 minutes after the administration of acetic acid.

[3] = system: non-infectious pneumonia induced by poly I:C; test: Non-infectious pneumonia induced by intranasal administration of poly I:C to mice (BAL neutrophils, lung histology); type: in vivo, female Balb/c mice
Protocol: The induction of pneumonia in mice was carried out according to the standard procedure [Eur Respir J. 2013 V. 41(5). […] Female Balb/c mice were intranasally administered with 8 μg/kg of polyinosine-polycytidylic acid (poly I:C) in 30 μl of PBS on days 1, 2, 3 and 4. Then at days 15, 16, 17 and 18, in the same volume 2 μg/kg of poly I:C were administered to the animals. […] All mice were sacrificed on the 19th day of the study. The bronchus from the right lung was pinched by the ligature, the left lung was washed 3 times with 0.8 ml of the sterile PBS. After each administration of PBS into the lung, the gentle massage of the lung was carried out, PBS was drained by gravity. Finally, the final volume of the resulting bronchoalveolar lavage (BAL) was considered and written. A number of neutrophils was evaluated in the BAL (using the Diff-Quik staining). For histological study, the right lung lobe was fixed in 10% neutral formalin solution and embedded in paraffin by the standard procedure. Deparaffinated 5-micron shears were stained with hematoxylin-eosin. Each lesion was evaluated according to a 5-point scale: 1 point—the inflammatory infiltrate occupies 0-20% of the area of the histological preparation under study, 2 point—the inflammatory infiltrate occupies 21-40% of the area of the histological preparation under study, 3 points—the inflammatory infiltrate occupies 41-60% of the area of the histological preparation under study, 4 points—the inflammatory infiltrate occupies 61-80% of the area of the histological preparation under study, 5 points—the inflammatory infiltrate occupies 81-100% of the area of the histological preparation under study. Alveolar destruction index (DI) as the percentage of the damaged alveoli relative to the total number of alveoli was also calculated.

[4] = system: neutrophil and macrophage chemotaxis (carrageenan pouch); test: Macrophage and neutrophil chemotaxis model to the site of inflammation (carrageenan pouch) in mice; type: in vivo, female Balb/c mice
Protocol: The induction of macrophages and neutrophils chemotaxis to the site of inflammation (carrageenan pouch) in mice was tested according to the standard procedure [Curr Protoc Pharmacol. 2012. V. 5. P. 5-6]. […] After 3 days to maintain the integrity of the air pouch without increasing the wound, 2.5 ml of air was introduced at the same site. On day 6 under CO2 anesthesia to induce inflammation, 1 ml of 1% carrageenan solution prepared in physiological saline was administered directly into the pouch. The test compound was administered intragastrically 1 hour before the administration of carrageenan and then every 10-12 hours in the volume of 0.1 ml. The last administration is 12 hours before the slaughter. Euthanasia by the inhalation of CO2 was performed 48 hours after the carrageenan injection. Immediately after the euthanasia, 1 ml of physiological saline containing 5.4 mM of EDTA of room temperature was introduced into the pouch with a sterile syringe. After gentle massage of the region of the air pouch, a sagittal incision was made across the pouch and exudate was collected by a dispenser. After the centrifugation of the exudate from the cell pellet, smears were prepared, which were then fixed in methanol and were stained by Romanowsky-Giemsa. A quantity of macrophages and neutrophils was then determined on the smears under a microscope. The cell calculation was made up to 100 pcs.

MCP-1 (CCL2) = test: MCP-1 level in blood serum of mice on the psoriasis model (ELISA); type: in vivo, female Balb/c mice; conditions: day 7, 30 mg/kg intragastric, M ± m, n = 10
Protocol: (§1) The induction of psoriasis in mice was carried out according to the standard procedure [European Journal of Pharmacology. 2015. V. 756. P. 43-51]. Aldar cream (5% imiquimod) was applied to female Balb/c mice on the inner side of the right ear once daily by 30 mg/mouse for 7 days (0-6th day). Vaseline was applied to the intact animals. […] Euthanasia was carried out 24 hours later (7th day) after the last application of the Aldar cream. Daily on the 0, 2nd, 3rd, 4th, 5th, 6th day, the thickness of the right ear was measured in the morning before the next application of the Aldar cream and before the euthanasia. After the euthanasia, blood was collected from the heart cavities, serum was isolated. The content of MCP1 was determined in blood serum by an enzyme-linked immunosorbent assay method, using test systems Mouse CCL2 (MCP-1) Uncoated ELISA Kit (Invitrogen).

mouse model of psoriasis = test: Mouse model of psoriasis (Aldar cream, 5% imiquimod): ear thickness and clinical signs; type: in vivo, female Balb/c mice; conditions: Compound 1 30 mg/kg, Neotigason 5 mg/kg, M ± m, n = 20; for The gain of the ear thickness at the determined day of study to day 0, Day 2 / The gain of the ear thickness at the determined day of study to day 0, Day 3 / The gain of the ear thickness at the determined day of study to day 0, Day 4 / The gain of the ear thickness at the determined day of study to day 0, Day 5 / The gain of the ear thickness at the determined day of study to day 0, Day 6: intragastric once daily; for Clinical signs of psoriasis, Erythema, Day 4 / Clinical signs of psoriasis, Flakes, Day 4 / Clinical signs of psoriasis, Thickening, Day 4 / Clinical signs of psoriasis, Erythema, Day 6 / Clinical signs of psoriasis, Flakes, Day 6 / Clinical signs of psoriasis, Thickening, Day 6: score 0-4 (Table 1)
Protocol: as §1
2011. V. 88(1-2). P. 100-113].

[5] = system: macrophage chemotaxis (thioglycolate peritonitis); test: Macrophage chemotaxis to the site of inflammation (thioglycolate peritonitis) in mice; type: in vivo, male Balb/c mice
Protocol: The induction of macrophage chemotaxis to the site of inflammation (thioglycolate peritonitis) in mice were performed according to the standard procedure [J Leukoc Biol. 2009. V. 86.(2). P. 361-370]. Male Balb/c mice were intraperitoneally administered with 2 ml of 3% thioglycolic medium stored for 1 month. The preparation of thioglycolic medium was carried out as follows: 15 g of dry thioglycolic medium was stirred in 500 ml of distilled water, was boiled at 100° C. for 2 minutes, was filtered through a paper filter, was poured out by 50 ml in sterile tubes and was sterilized by autoclaving at 121° C. for 15 minutes. […]
After 72 hours, the animals were euthanized in a CO2-chamber and the peritoneum area was wetted with 70% alcohol, the skin on the abdominal cavity was carefully cut off, and 5 ml of a cold phosphate-saline buffer containing 0.1% of ethylenediamine tetraacetic acid was injected intraperitoneally with a syringe. After gentle massage of the abdominal cavity, the exudate was collected by a syringe into tubes, and the volume of the collected exudate was determined.
Smears were prepared from the cell pellet, which smears were further fixed in methanol (5 minutes) and stained by Romanowsky-Giemsa (40 min at 20-22° C.). On the smears, under the microscope Olympus bx51 (at magnification 100) the quantity of monocytes/macrophages was counted by the routine method. […]

[6] = system: non-infectious pneumonia induced by cigarette smoke extract; test: Non-infectious pneumonia induced by cigarette smoke extract, lung histology; type: in vivo, male Balb/c mice; conditions: 30 mg/kg intragastric daily day 7-27, 5-point scale; M ± m, n = 12
Protocol: The induction of non-infectious pneumonia in mice was carried out according to the standard procedure [Zhang Yl, Cao J, Chen Y, Chen P, Peng H, Cai S, Luo H, Wu SJ. […] Male Balb/c mice were intraperitoneally administered with cigarette smoke extract (CSE, 0.45 ml/20 mg) at 0, 11th, 15th, 17th, 19th and 22nd day. The CSE was prepared as follows: 5 cigarettes were burnt, using a vacuum pump, the smoke was filtered to remove particles and collected in a vessel containing a phosphate saline buffer. […] Euthanasia was carried out on the 28th day. The right lung lobe was fixed in 10% neutral formalin solution, passed through the alcohols of ascending concentrations to xylene, and embedded in paraffin by standard procedures. Deparaffinated 5-micron shears were stained with hematoxylin-eosin and the histological analysis was carried out.
Each lesion was evaluated according to a 5-point scale: 1 point—the inflammatory infiltrate occupies 0-20% of the area of the histological preparation under study, 2 point—the inflammatory infiltrate occupies 21-40% of the area of the histological preparation under study, 3 points—the inflammatory infiltrate occupies 41-60% of the area of the histological preparation under study, 4 points—the inflammatory infiltrate occupies 61-80% of the area of the histological preparation under study, 5 points—the inflammatory infiltrate occupies 81-100% of the area of the histological preparation under study. Alveolar destruction index (DI) as the percentage of the damaged alveoli relative to the total number of alveoli was also calculated.

[7] = 30 mg/kg intragastric daily day 6-19, 5-point scale, M ± m, n = 7
[8] = 30 mg/kg intragastric, 48 hours after carrageenan, M ± m, n = 10

SMILES | The gain of the ear thickness at the determined day of study to day 0, Day 2 (mouse model of psoriasis) | The gain of the ear thickness at the determined day of study to day 0, Day 3 (mouse model of psoriasis) | The gain of the ear thickness at the determined day of study to day 0, Day 4 (mouse model of psoriasis) | Clinical signs of psoriasis, Erythema, Day 4 (mouse model of psoriasis) | Clinical signs of psoriasis, Flakes, Day 4 (mouse model of psoriasis) | Clinical signs of psoriasis, Thickening, Day 4 (mouse model of psoriasis) | The gain of the ear thickness at the determined day of study to day 0, Day 5 (mouse model of psoriasis) | The gain of the ear thickness at the determined day of study to day 0, Day 6 (mouse model of psoriasis) | Clinical signs of psoriasis, Erythema, Day 6 (mouse model of psoriasis) | Clinical signs of psoriasis, Flakes, Day 6 (mouse model of psoriasis) | Clinical signs of psoriasis, Thickening, Day 6 (mouse model of psoriasis) | also measured
O=C1CCCC(=O)N1CCc1cnc[nH]1 [Compound 1, 1-(2-(1H-imidazol-4-yl)ethyl)piperidine-2,6-dione] | 7.8 ± 1.4& % | 11.2 ± 1.9& % | 33.8 ± 1.6& % | 1.5 ± 0.1*& points | 0.0 ± 0.0& points | 0.9 ± 0.1*& points | 46.9 ± 1.6*& % | 55.8 ± 0.8*& % | 1.3 ± 0.1*& points | 0.1 ± 0.1& points | 1.3 ± 0.1*& points | Increase of the threshold of pain sensitivity in the hot plate test ([1]; intragastric administration): 2 times; Quantity of constrictions for 15 minutes ([2]; 1 hour before the administration of acetic acid): 23.8 ± 3.7; Quantity of constrictions for 15 minutes ([2]; 2 hour before the administration of acetic acid): 22.7 ± 2.6; Interstitial pneumonia [3, 7]: 0.76 ± 0.1& points; Peribronchitis [3, 7]: 0.73 ± 0.32& points; Perivasculitis [3, 7]: 0.80 ± 0.31& points; Neutrophils in 1 μl Score (bronchoalveolar lavage) ([3]; 30 mg/kg intragastric daily day 6-19, M ± m, n = 7): 0.0 ± 0.0& in 1 μl; Influx of neutrophils into the bronchoalveolar space ([3]; intragastric administration): completely abolished; Macrophages in the exudate from the carrageenan pouch [4, 8]: 0.6 ± 0.2 & ×10^9/l; Neutrophils in the exudate from the carrageenan pouch [4, 8]: 0.6 ± 0.1 & ×10^9/l; Quantity of neutrophils and macrophages in the pouch cavity ([4]; intragastric administration): to the level of intact animals; MCP-1 level in blood serum (MCP-1 (CCL2)): 113.7 ± 8.3 & pg/ml; Macrophages in peritoneal exudate ([5]; 30 mg/kg intragastric, 72 hours after thioglycolate): 0.84 ± 0.16 & ×10^9/l; Quantity of macrophages in the peritoneal exudate ([5]; intragastric administration): to the level of intact animals; Interstitial pneumonia [6]: 1.08 ± 0.16& points; Peribronchitis [6]: 0.13 ± 0.07& points; Perivasculitis [6]: 1.03 ± 0.11& points
O=C(c1ccccc1)c1ccc2n1CCC2C(=O)O (centres unmarked) [Ketorol] |  |  |  |  |  |  |  |  |  |  |  | TPS, % to the values before the administration of the preparation, after 1 hours ([1]; 1 hour after single intragastric dose, Compound 1 30 mg/kg, Ketorol 15 mg/kg, M ± m, n = 12): 146.4 ± 16.6%; TPS, % to the values before the administration of the preparation, after 4 hours ([1]; 4 hours after single intragastric dose, Compound 1 30 mg/kg, Ketorol 15 mg/kg, M ± m, n = 12): 195.9 ± 30.0 %; TPS, % to the values before the administration of the preparation, after 6 hours ([1]; 6 hours after single intragastric dose, Compound 1 30 mg/kg, Ketorol 15 mg/kg, M ± m, n = 12): 176.6 ± 34.0%; TPS, % to the values before the administration of the preparation, after 12 hours ([1]; 12 hours after single intragastric dose, Compound 1 30 mg/kg, Ketorol 15 mg/kg, M ± m, n = 12): 166.5 ± 25.3%; TPS, % to the values before the administration of the preparation, after 24 hours ([1]; 24 hours after single intragastric dose, Compound 1 30 mg/kg, Ketorol 15 mg/kg, M ± m, n = 12): 159.7 ± 22.4%
COc1cc(C)c(/C=C/C(C)=C/C=C/C(C)=C/C(=O)O)c(C)c1C [Neotigason, reference compound] | 14.2 ± 1.9*& % | 27.5 ± 1.8*& % | 45.9 ± 2.5*& % | 1.2 ± 0.1*& points | 0.0 ± 0.0& points | 1.4 ± 0.1*& points | 68.9 ± 1.8 % | 83.1 ± 1.4 % | 1.6 ± 0.1*& points | 0 ± 0& points | 1.3 ± 0.1*& points | 
